What was measured:
[1] = test system: acetic acid-induced writhing; assay: Acetic acid-induced writhing test on mice; type: in vivo, mouse; settings: for Numbers of writhings: mean ± SD
Method: In order to measure an antinociceptive activity, 1% acetic acid (100 μl) was intraperitoneally injected to a mouse. 10 minutes after the injection of the acetic acid, the number of writhings was counted for 10 minutes. Before the injection of the acetic acid, a test material dissolved in a mixture including DMSO and water at a ratio of 1:1 was orally administered (0.1 ml/mouse).
Each group consisted of 6 mice. Measurement values were represented by arithmetic mean±SD (a of Table 3). b of Table 3 indicates an inhibitory activity % compared to the control group treated with the acetic acid. * indicates a significant difference of P<0.05 compared to the acetic acid-treated control group.

[2] = test system: AA-induced mouse ear edema; assay: Arachidonic acid (AA)-induced mouse ear edema; type: in vivo; settings: 20 mg/kg oral
Method: AA-induced mouse ear edema assay was used to identify an anti-inflammatory activity in vivo in anti-inflammatory animal model. According to a method disclosed in Kim et al. (1993), 2% AA acetone solution was applied to an ear of a mouse (20 μl/ear), and after one hour, a thickness of the ear was measured using a dial thickness gauge (Mitutoyo, Japan). One hour before the AA treatment, a test material dissolved in a mixture including DMSO and water at a mixture ratio of 1:1 was orally administered to the mouse (0.1 ml/mouse).

[3] = test system: CGN-induced mouse paw edema; assay: λ-Carrageenan (CGN)-induced mouse paw edema; type: in vivo; settings: for Paw volume increased: 5 h after CGN, mean ± SD
Method: Mouse CGN-induced paw edema assay was performed to measure an anti-inflammatory activity according to a slightly modified method disclosed in Winter et al. (1962). […] If the volume was greater than that before the addition of CGN, it was deemed that edema developed. The test material was dissolved in a mixture including DMSO and water at a mixture ratio of 1:1 and then was orally administered. A volume of a negative control group which was not treated with CGN was 0.149±0.025 ml.

[4] = molecular target: T1, 5-LOX (Rattus norvegicus, UniProt P12527); assay: 5-LOX-mediated cysteinyl leukotriene (LTC4/D4/E4) production in A23187-treated RBL-1 cells; type: cell-based; settings: 1 nM, read-out: 5-LOX inhibitory activity
T1 construct: RBL-1 cells obtained from American Type Culture Collection; endogenous in cells; host or cells: RBL-1 (rat basophilic leukemia) cells, ATCC
T1 sequence (P12527 1-673): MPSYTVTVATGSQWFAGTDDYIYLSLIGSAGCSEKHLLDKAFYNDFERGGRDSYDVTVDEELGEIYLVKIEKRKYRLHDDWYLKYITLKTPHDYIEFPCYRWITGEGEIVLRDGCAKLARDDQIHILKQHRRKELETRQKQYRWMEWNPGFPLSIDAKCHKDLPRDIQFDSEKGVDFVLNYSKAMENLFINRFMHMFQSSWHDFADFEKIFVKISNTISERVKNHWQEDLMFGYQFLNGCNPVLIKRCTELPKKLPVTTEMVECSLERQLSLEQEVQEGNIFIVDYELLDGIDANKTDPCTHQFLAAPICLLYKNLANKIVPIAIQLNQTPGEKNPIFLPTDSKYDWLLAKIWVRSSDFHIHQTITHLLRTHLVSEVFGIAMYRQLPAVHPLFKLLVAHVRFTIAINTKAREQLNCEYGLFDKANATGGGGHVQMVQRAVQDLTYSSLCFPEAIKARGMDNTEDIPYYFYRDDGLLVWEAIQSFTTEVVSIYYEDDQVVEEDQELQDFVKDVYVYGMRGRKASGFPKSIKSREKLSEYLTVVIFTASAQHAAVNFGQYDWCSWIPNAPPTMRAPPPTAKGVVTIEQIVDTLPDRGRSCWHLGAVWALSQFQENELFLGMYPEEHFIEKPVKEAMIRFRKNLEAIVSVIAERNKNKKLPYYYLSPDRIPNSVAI
Method: The cells were placed on 96-well plates for 2 hours, and incubated in advance with a test material for 10 minutes. The test material was dissolved in DMSO and diluted with serum-free DMEM at an appropriate concentration. The final concentration of DMSO was adjusted to be 0.1% (v/v). […] A medium used was collected and a concentration of cysteinyl leukotrienes (LTC4/D4/E4) produced by 5-LOX was measured using an ELISA kit (Cayman Chem.) according to a method recommended by the manufacturer.
It is known that when RBL-1 cells are activated by A23187 (calcium ionophore), a great amount of cysteinyl-LTs is generated by 5-LOX.

CC(=O)Oc1ccccc1C(=O)O [Aspirin, aspirin]
inhibitory activity % compared to the acetic acid-treated control group (writhings) ([1]; Exp. 1, 100 mg/kg oral): 60.9% | Numbers of writhings ([1]; Exp. 1, 100 mg/kg oral): 5.7 ± 3.8 | inhibitory activity % compared to the acetic acid-treated control group (writhings) ([1]; Exp. 2, 100 mg/kg oral): 46.1% | Numbers of writhings ([1]; Exp. 2, 100 mg/kg oral): 9.6 ± 3.2

COc1ccc2c(c1)c(CC(=O)O)c(C)n2C(=O)c1ccc(Cl)cc1 [Indomethacin, indomethacin]
inhibitory activity % compared to the AA-treated control group (ear edema) [2]: 70% | Ear thickness increased ([2]; 1 h after AA, mean ± SD): 0.021 ± 0.013 mm | inhibitory activity % compared to the CGN-treated control group (paw edema) ([3]; 20 mg/kg oral): 23.7% | Paw volume increased ([3]; 20 mg/kg oral): 0.116 ± 0.039 mL | inhibitory activity % compared to the CGN-treated control group (paw edema) ([3]; 100 mg/kg oral): 44.7% | Paw volume increased ([3]; 100 mg/kg oral): 0.084 ± 0.019 mL

CC(Cc1ccc(O)c(O)c1)C(C)Cc1ccc(O)c(O)c1 (stereo not shown) [NDGA, nordihydroguaiaretic acid]
inhibition at 0.001 µM [4]: 99%

C[C@]12C=CC(=O)C=C1CC[C@@H]1[C@@H]2[C@@H](O)C[C@@]2(C)[C@H]1CC[C@]2(O)C(=O)CO [Prednisolone, prednisolone]
inhibitory activity % compared to the CGN-treated control group (paw edema) ([3]; 20 mg/kg oral): 50.0% | Paw volume increased ([3]; 20 mg/kg oral): 0.076 ± 0.011 mL
